US12527779B2, “Prostaglandin E2 (PGE2) EP4 receptor antagonists” (Domain Therapeutics, priority 2019, dated 2026)
Structures can show the parent of a compound that is named as a salt.

Molecular target: T1, human EP4 (hEP4) receptor (Homo sapiens, UniProt P35408)
T1 construct: expressed in transfected cells; host or cells: HEK-293 T cells, transient co-transfection with polyethylenimine
Experiment: In vitro human EP4 functional antagonist activity using BRET biosensors (cAMP EPAC biosensor, TCS2510 stimulation)
Assay type: cell-based
Details: antagonist activity vs EC60 TCS2510, hEP4 in HEK-293 T cells
Outline: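 Antagonism measured as inhibition of EC60 TCS2510-induced cAMP BRET signal (EPAC luciferase/GFP sensor) in transiently hEP4-expressing HEK-293T cells, following 5 min compound preincubation and 10 min luminescence recording. Plates equilibrated 1 h at 22 °C in HEPES buffer; 10 concentrations over 4.5 logs, duplicate in two independent experiments, sigmoidal variable-slope IC50.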

T1 sequence (P35408 whole entry): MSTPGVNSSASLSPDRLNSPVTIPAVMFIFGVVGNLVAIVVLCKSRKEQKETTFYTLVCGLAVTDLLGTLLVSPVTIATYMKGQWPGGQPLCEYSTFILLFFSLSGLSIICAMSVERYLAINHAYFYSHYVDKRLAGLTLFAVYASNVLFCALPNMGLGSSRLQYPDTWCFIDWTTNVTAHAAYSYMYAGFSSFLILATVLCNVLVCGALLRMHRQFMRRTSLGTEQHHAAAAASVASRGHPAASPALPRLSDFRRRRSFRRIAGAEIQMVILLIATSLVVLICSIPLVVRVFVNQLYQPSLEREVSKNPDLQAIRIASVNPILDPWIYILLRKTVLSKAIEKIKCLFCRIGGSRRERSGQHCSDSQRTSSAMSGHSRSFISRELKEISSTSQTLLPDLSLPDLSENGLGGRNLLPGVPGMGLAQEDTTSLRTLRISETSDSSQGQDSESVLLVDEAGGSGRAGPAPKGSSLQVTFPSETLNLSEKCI

IC50 | SMILES
< 100 nM | C[C@H](NC(=O)C1(N2CC[C@@H](Oc3cccc(Cl)c3)C2)CCCC1)c1ccc(C(=O)O)cc1 [Example 157, 4-[(1S)-1-[[1-[(3R)-3-(3-Chlorophenoxy)pyrrolidin-1-yl]cyclopentane-1-carbonyl]amino]ethyl]benzoic acid, hydrochloride]
< 1000 nM | C[C@H](NC(=O)C1(N2CC[C@@H](Oc3cccc(C(F)(F)F)c3)C2)CCOCC1)c1ccccn1 [Example 186, N—((S)-1-(Pyridin-2-yl)ethyl)-4-((R)-3-(3-(trifluoromethyl)phenoxy)pyrrolidin-1-yl)tetrahydro-2H-pyran-4-carboxamide, hydrochloride]
< 1000 nM | CNC(=O)c1ccc([C@H](C)NC(=O)C2(N(C)CCOc3ccccc3)CCOCC2)cc1 [Example 4, N-[(1S)-1-[4-(Methylcarbamoyl)phenyl]ethyl]-4-[methyl(2-phenoxyethyl)amino]tetrahydropyran-4-carboxamide]
< 100 nM | C[C@H](NC(=O)C1(N2CC[C@@H](Oc3cccc(C(F)(F)F)c3)C2)CCOCC1)c1ccc(C(=O)O)cc1 [Example 144, 4-[(1S)-1-[[4-[(3R)-3-[3-(Trifluoromethyl)phenoxy]pyrrolidin-1-yl]tetrahydropyran-4-carbonyl]amino]ethyl]benzoic acid, hydrochloride]
< 100 nM | C[C@H](NC(=O)C(C)(C)N1CC[C@@H](Oc2cccc(Cl)c2)C1)c1ccc(C(=O)O)cc1 [Example 161, hydrochloride]
< 100 nM | C[C@H](NC(=O)C(C)(C)N1CC[C@@H](Oc2cccc(C(F)(F)F)c2)C1)c1ccc(C(=O)O)cc1 [Example 167, hydrochloride]
< 100 nM | C[C@H](NC(=O)C1(NCCOc2ccccc2)CCOC(C)(C)C1)c1ccc(C(=O)O)cc1 (single isomer, unassigned) [Example 72, hydrochloride]
< 100 nM | C[C@H](NC(=O)C1(N(C)CCOc2ccccc2)CCCC1)c1ccc(C(=O)O)cc1 [Example 62, 4-[(1S)-1-[[1-[Methyl(2-phenoxyethyl)amino]cyclopentanecarbonyl]amino]ethyl]benzoic acid, hydrochloride]
< 1000 nM | C[C@H](NC(=O)C1(N2CC[C@@H](Oc3cccc(C(F)(F)F)c3)C2)CCOCC1)c1ccncc1 [Example 184, N—((S)-1-(Pyridin-4-yl)ethyl)-4-((R)-3-(3-(trifluoromethyl)phenoxy)pyrrolidin-1-yl)tetrahydro-2H-pyran-4-carboxamide, hydrochloride]
< 1000 nM | CN(CCOc1ccccc1)C1(C(=O)NC2(c3ccc(C(=O)O)c(Cl)c3)CC2)CCOCC1 [Example 51, 2-Chloro-4-[1-[[4-[methyl(2-phenoxyethyl)amino]tetrahydropyran-4-carbonyl]amino]cyclopropyl]benzoic acid, hydrochloride]
< 1000 nM | C[C@H](NC(=O)C1(N(C)CCOc2ccccc2)CCOCC1)c1ccc(C(=O)N(C)C)cc1 [Example 5, N-[(1S)-1-[4-(Dimethylcarbamoyl)phenyl]ethyl]-4-[methyl(2-phenoxyethyl)amino]tetrahydropyran-4-carboxamide]
< 1000 nM | CN(CCOc1ccccc1)C1(C(=O)NC2(c3ccc(C(=O)O)nc3)CC2)CCOCC1 [Example 53, 5-[1-[[4-[Methyl(2-phenoxyethyl)amino]tetrahydropyran-4-carbonyl]amino]cyclopropyl]pyridine-2-carboxylic acid, hydrochloride]
< 100 nM | C[C@H](NC(=O)C1(CCCOc2ccccc2)CCOCC1)c1ccc(C(=O)O)cc1 [Example 81, 4-[(1S)-1-[[4-(3-Phenoxypropyl)tetrahydropyran-4-carbonyl]amino]ethy]benzoic Acid]
< 1000 nM | C[C@H](NC(=O)C1(NCCOc2ccccc2)CCCCC1)c1ccc(C(=O)O)cc1 [Example 55, 4-[(1S)-1-[[1-(2-Phenoxyethylamino)cyclohexanecarbonyl]amino]ethyl]benzoic acid, hydrochloride]
< 1000 nM | C[C@H](NC(=O)C1(c2ccc(OCC(F)(F)F)cc2)CCOCC1)c1ccc(C(=O)O)cc1 [Example 91, 4-[(1S)-1-[[4-[4-(2,2,2-Trifluoroethoxy)phenyl]tetrahydropyran-4-carbonyl]amino]ethyl]benzoic acid]
< 1000 nM | C[C@H](NC(=O)C1(c2ccc(OCC3CCCCC3)cc2)CCOCC1)c1ccc(C(=O)O)cc1 [Example 89, 4-[(1S)-1-[[4-[4-(Cyclohexylmethoxy)phenyl]tetrahydropyran-4-carbonyl]amino]ethyl]benzoic acid]

IC50 | SMILES
< 1000 nM | C[C@H](NC(=O)C1(c2ccc(OCc3ccccc3)cc2)CCOCC1)c1ccc(C(=O)O)cc1 [Example 88, 4-[(1S)-1-[[4-(4-Benzyloxyphenyl)tetrahydropyran-4-carbonyl]amino]ethyl]benzoic acid]
< 1000 nM | CN(CCOc1ccc(OC(F)(F)F)cc1)C1(C(=O)NC2(c3ccc(C(=O)O)cc3)CC2)CCOCC1 [Example 45, 4-[1-[[4-[2-(4-Trifluoromethoxyphenoxy)ethyl-methyl-amino]tetrahydropyran-4-carbonyl]amino]cyclopropyl]benzoic acid, hydrochloride]
< 100 nM | C[C@H](NC(=O)C1(N2CC[C@@H](Oc3cccc(C(F)(F)F)c3)C2)CCOCC1)c1ccc(S(C)(=O)=O)cc1 [Example 179, N—((S)-1-(4-(Methylsulfonyl)phenyl)ethyl)-4-((R)-3-(3-(trifluoromethyl)phenoxy)pyrrolidin-1-yl)tetrahydro-2H-pyran-4-carboxamide, hydrochloride]
< 100 nM | C[C@H](NC(=O)C1(N2CCC[C@@H](Oc3cccc(Cl)c3)C2)CCOCC1)c1ccc(C(=O)O)cc1 [Example 136, 4-[(1S)-1-[[4-[(3R)-3-(3-Chlorophenoxy)-1-piperidyl]tetrahydropyran-4-carbonyl]amino]ethyl]benzoic acid, hydrochloride]
< 100 nM | C[C@H](NC(=O)C1(N2CC[C@@H](Oc3cccc(C(F)(F)F)c3)C2)CCOCC1)c1ccc(-c2ccn[nH]2)cc1 [Example 177, N—((S)-1-(4-(1H-Pyrazol-5-yl)phenyl)ethyl)-4-((R)-3-(3-(trifluoromethyl)phenoxy)pyrrolidin-1-yl)tetrahydro-2H-pyran-4-carboxamide, hydrochloride]
< 100 nM | C[C@H](NC(=O)C1(N(C)CCOc2ccccc2)CCOC1)c1ccc(C(=O)O)cc1 (stereo partly drawn) [Example 74, 4-[(1S)-1-[[3-[Methyl(2-phenoxyethyl)amino]tetrahydrofuran-3-carbonyl]amino]ethyl]benzoic acid, hydrochloride]
< 100 nM | C[C@H](NC(=O)C1(N2CC[C@@H](Oc3cccc(C(F)(F)F)c3)C2)CCC1)c1ccc(C(N)=O)cc1 [Example 171, 4-[(1S)-1-[[1-[(3R)-3-[3-(Trifluoromethyl)phenoxy]pyrrolidin-1-yl]cyclobutane-1-carbonyl]amino]ethyl]benzamide, hydrochloride]
< 1000 nM | C[C@H](NC(=O)C1(c2cccc(OCC3CCCC3)c2)CCOCC1)c1ccc(C(=O)O)cc1 [Example 102, 4-[(1S)-1-[[4-[3-(Cyclopentylmethoxy)phenyl]tetrahydropyran-4-carbonyl]amino]ethyl]benzoic acid]
< 100 nM | C[C@H](NC(=O)C1(N2CC[C@@H](Oc3cccc(C(F)(F)F)c3)C2)CCCC1)c1ccc(C(=O)O)cc1 [Example 164, 4-[(1S)-1-[[1-[(3R)-3-[3-Trifluoromethyl)phenoxy]pyrrolidin-1-yl]cyclopentane-1-carbonyl]amino]ethyl]benzoic acid, hydrochloride]
< 1000 nM | C[C@H](NC(=O)C(C)(C)N1CC[C@@H](Oc2cccc(C(F)(F)F)c2)C1)c1ccc(S(N)(=O)=O)cc1 [Example 203, 2-Methyl-N—((S)-1-(4-sulfamoylphenyl)ethyl)-2-((R)-3-(3-(trifluoromethyl)phenoxy)pyrrolidin-1-yl)propanamide, hydrochloride]
< 100 nM | CN(CCOc1ccccc1F)C1(C(=O)NC2(c3ccc(C(=O)O)cc3)CC2)CCOCC1 [Example 33, 4-[1-[[4-[2-(2-Fluorophenoxy)ethyl-methyl-amino]tetrahydropyran-4-carbonyl]amino]cyclopropyl]benzoic acid, hydrochloride]
< 100 nM | COc1cccc(OCCN(C)C2(C(=O)NC3(c4ccc(C(=O)O)cc4)CC3)CCOCC2)c1 [Example 38, 4-[1-[[4-[2-(3-Methoxyphenoxy)ethyl-methyl-amino]tetrahydropyran-4-carbonyl]amino]cyclopropyl]benzoic acid, hydrochloride]
< 100 nM | CN(CCOc1cccc(C(F)(F)F)c1)C1(C(=O)NC2(c3ccc(C(=O)O)cc3)CC2)CCOCC1 [Example 41, 4-[1-[[4-[2-(3-Trifluoromethylphenoxy)ethyl-methyl-amino]tetrahydropyran-4-carbonyl]amino]cyclopropyl]benzoic acid, hydrochloride]
< 100 nM | C[C@H](NC(=O)C1(c2cccc(OCC3CCCCC3)c2)CCCC1)c1ccc(C(=O)O)cc1 [Example 112, 4-[(1S)-1-[[1-[3-(Cyclohexylmethoxy)phenyl]cyclopentanecarbonyl]amino]ethyl]benzoic acid]
< 100 nM | C[C@H](NC(=O)C1(N2CC[C@@H](Oc3cccc(Cl)c3)C2)CCC(F)(F)CC1)c1ccc(C(=O)O)cc1 [Example 156, 4-[(1S)-1-[[1-[(3R)-3-(3-Chlorophenoxy)pyrrolidin-1-yl]-4,4-difluorocyclohexane-1-carbonyl]amino]ethyl]benzoic acid, hydrochloride]
< 1000 nM | C[C@H](NC(=O)C1(NCc2cccc(F)c2)CCOCC1)c1ccc(C(=O)O)cc1 [Example 20, 4-[(1S)-1-[[4-[(3-Fluorophenyl)methylamino]tetrahydropyran-4-carbonyl]amino]ethyl]benzoic acid, hydrochloride]

SMILES | IC50
CCCC(C)COc1ccc(C2(C(=O)N[C@@H](C)c3ccc(C(=O)O)cc3)CCOCC2)cc1 (stereo partly drawn) [Example 84, 4-[(1S)-1-[[4-[4-(2-Methylpentoxy)phenyl]tetrahydropyran-4-carbonyl]amino]ethyl]benzoic acid] | < 1000 nM
